According to patent US7105534B2, “Imidazo[1,2-α]pyridine ether compounds as ion channel modulators” (Cardiome Pharma Corp., priority 2000, dated 2006):
Counter-ions that a name gives are not always drawn.

Assays:
[1] = target: T1, Kv4.2 (Homo sapiens, UniProt Q9NZV8); assay: Patch-clamp inhibition of cloned ion channel current in transfected HEK cells: Kv4.2; format: cell-based; settings: integrated current, -80 mV to +60 mV
T1 construct: expressed in transfected cells; host or cells: HEK cells, transient transfection, vector pCDNA3
T1 sequence (Q9NZV8 1-630): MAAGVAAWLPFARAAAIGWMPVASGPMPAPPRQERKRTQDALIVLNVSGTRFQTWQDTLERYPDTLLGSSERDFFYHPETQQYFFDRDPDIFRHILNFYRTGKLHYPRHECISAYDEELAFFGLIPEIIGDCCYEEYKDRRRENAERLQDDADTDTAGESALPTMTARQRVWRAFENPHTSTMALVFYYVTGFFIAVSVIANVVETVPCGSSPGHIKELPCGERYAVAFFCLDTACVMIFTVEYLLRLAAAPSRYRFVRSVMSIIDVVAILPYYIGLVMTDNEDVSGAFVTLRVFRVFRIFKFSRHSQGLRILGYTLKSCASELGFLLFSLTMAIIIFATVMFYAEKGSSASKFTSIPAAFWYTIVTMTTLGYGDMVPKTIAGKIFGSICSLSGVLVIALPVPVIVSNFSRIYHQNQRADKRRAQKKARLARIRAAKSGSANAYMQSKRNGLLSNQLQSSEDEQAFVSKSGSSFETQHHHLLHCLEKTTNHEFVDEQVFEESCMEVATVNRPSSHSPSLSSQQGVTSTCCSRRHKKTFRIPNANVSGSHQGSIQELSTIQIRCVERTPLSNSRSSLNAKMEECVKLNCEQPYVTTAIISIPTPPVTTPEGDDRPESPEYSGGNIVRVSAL
Method: (§1) The relevant cloned ion channels (e.g. cardiac hH1, Kv1.4, Kv1.5, Kv4.2, Kv2.1, HERG etc.) are studied by transient transfection into HEK cells using the mammalian expression vector pCDNA3. Transfections for each channel type are carried out separately to allow individual study of the ion channel of interest. Cells expressing channel protein are detected by cotransfecting cells with the vector pHook-1 (Invitrogen, San Diego, Calif., USA). […] Equal concentrations of individual channel and pHook DNA are incubated with 10× concentration of lipofectAce in Modified Eagle's Medium (MEM, Canadian Life Technologies) and incubated with parent HEK cells plated on 25 mm culture dishes. After 3–4 hours the solution is replaced with a standard culture medium plus 20% fetal bovine serum and 1% antimycotic. Transfected cells are maintained at 37C in an air/5% CO2 incubator in 25 mm Petri dishes plated on glass coverslips for 24–48 hours to allow channel expression to occur. 20 min prior to experiments, cells are treated with beads coated with phOX. After 15 min, excess beads are […] off with cell culture medium and cells which had beads stuck to them are used for electrophysiological tests.
(§2) For whole-cell recording the control pipette filling solution contained (in mM): KCl, 130; EGTA, 5; MgCl2, 1; HEPES, 10; Na2ATP, 4; GTP, 0.1; and is adjusted to pH 7.2 with KOH. The control bath solution contained (in mM): NaCl, 135; KCI, 5; sodium acetate, 2.8; MgCl2, 1; HEPES, 10; CaCl2, 1; and is adjusted to pH 7.4 with NaOH. The test ion channel modulating compound is dissolved to 10 mM stock solutions in water and used at concentrations between 0.5 and 100 μM.
(§3) Coverslips containing cells are removed from the incubator before experiments and placed in a superfusion chamber (volume 250 μl) containing the control bath solution at 22C to 23C. All recordings are made via the variations of the patch-clamp technique, using an Axopatch 200A amplifier (Axon Instruments, CA). Patch electrodes are pulled from thin-walled borosilicate glass (World Precision Instruments; FL) on a horizontal micropipette puller, fire-polished, and filled with appropriate solutions. Electrodes had resistances of […] when filled with control filling solution. Analog capacity compensation is used in all whole cell measurements. In some experiments, leak subtraction is applied to data. Membrane potentials have not been corrected for any junctional potentials that arose between the pipette and bath solution. Data are filtered at 5 to 10 kHz before digitization and stored on a microcomputer for later analysis using the pClamp6 software (Axon Instruments, Foster City, Calif.). Due to the high level of expression of channel cDNA's in HEK cells, there is no need for signal averaging. The average cell capacitance is quite small, and the absence of ionic current at negative membrane potentials allowed faithful leak subtraction of data.
(§4) The concentration-response curves for changes in peak and steady-state current produced by the test compound are computer-fitted to the Hill equation: f=1−1/[1+([…])^n] [1]
(§5) where f is the fractional current (f=Idrug/Icontrol) at drug concentration [D]; IC50 is the concentration producing half-maximal inhibition and n is the Hill coefficient.
(§6) Compounds of the present invention may be evaluated by this method. […] Block is determined from the decrease in peak hH1 Na^+ current, or in steady-state Kv1.5 and integrated Kv4.2 current in the presence of drug. To record Na^+ current, cells are depolarized from the holding potential of −100 mV to a voltage of −30 mV for 10 ms to fully open and inactivate the channel. To record Kv1.5 and Kv4.2 current, cells are depolarized from the holding potential of −80 mV to a voltage of +60 mV for 200 ms to fully open the channel. Currents are recorded in the steady-state at a range of drug concentrations during stimulation every 4 s. […]

[2] = tested on: Sprague Dawley rats; assay: Cardiovascular and behavioral effects: ECG changes during i.v. infusion in conscious rats; format: in vivo, rat
Method: Preparative surgery is performed in Sprague Dawley rats weighing 200–300 gm and anaesthetized with 65 mg/kg (i.p.) pentobarbital. The femoral artery and vein are cannulated using polyethylene (PE)-10 tubing. Prior to surgery, this PE-10 tubing had been annealed to a wider gauge (PE-50) tubing for externalization. The cannulated PE-10/PE-50 tubing is passed through a trocar and exteriorised together with three (lead II) limb ECG leads (see below). The trocar is threaded under the skin of the back and out through a small incision at the mid-scapular region. A ground ECG electrode is inserted subcutaneously using a 20 gauge needle with the lead wire threaded through it. To place the other ECG electrodes, a small incision is made in the anterior chest region over the heart and ECG leads are inserted into the subcutaneous muscle layer in the region of the heart using a 20 guage needle. Other ECG leads are inserted into the subcutaneous muscle layer in the region near the base of the neck and shoulder (right side). The animal is returned to a clean recovery-cage with free access to food and water. The treatment and observational period for each animal commenced after a 24-hour recovery period.
A 15 min observational period is recorded followed by the intravenous infusion regime of the test compound at an initial dose of 2.0 μmol/kg/min (at 1 ml/hr). This rate is doubled every 5 minutes until one of the following effects is observed:
Blood pressure (BP), heart rate (HR) and ECG variables are continuously recorded while behavioral responses are also monitored and the total accumulative drug dose and drug infusion rate at which the response (such as convulsion, piloerection, ataxia, restlessness, compulsive chewing, lip-smacking, wet dog shake etc.) occurred are recorded.
Electrocardiograph (ECG) parameters: PR, QRS, QT1 (peak of T-wave), QT2 (midpoint of T-wave deflection) and hemodynamic parameters: BP and HR are analyzed using the automated analysis function in LabView (National Instruments) with a customized autoanalysis software (Nortran Pharmaceuticals). The infused dose producing 25% from control (D25) for all recorded ECG variables is determined.
Table 2 describes the results of the tests as D25 (micromol/kg) which are the doses required to produce a 25% increase in the ECG parameter measured (ne=not estimated). The increases in P-R interval and QRS interval indicate cardiac sodium channel blockade while the increase in Q-T interval indicates cardiac potassium channel blockade.

[3] = target: T2, HERG (Homo sapiens, UniProt Q12809); assay: Patch-clamp inhibition of cloned ion channel current in transfected HEK cells: HERG; format: cell-based; settings: whole-cell patch clamp
T2 construct: expressed in transfected cells; host or cells: HEK cells, transient transfection, vector pCDNA3
Method: as §1, §2, §3, §4, §5, §6

[4] = target: T3, Kv1.5 (Homo sapiens, UniProt P22460); assay: Patch-clamp inhibition of cloned ion channel current in transfected HEK cells: Kv1.5; format: cell-based; settings: steady-state current, -80 mV to +60 mV
T3 construct: expressed in transfected cells; host or cells: HEK cells, transient transfection, vector pCDNA3
Method: as §1, §2, §3, §4, §5, §6

[5] = target: T4, hH1 Na+ current (Homo sapiens, UniProt Q14524); assay: Patch-clamp inhibition of cloned ion channel current in transfected HEK cells: Na; format: cell-based; settings: peak hH1 Na+ current, -100 mV to -30 mV
T4 construct: expressed in transfected cells; host or cells: HEK cells, transient transfection, vector pCDNA3
Method: as §1, §2, §3, §4, §5, §6

T4 sequence (Q14524 whole entry): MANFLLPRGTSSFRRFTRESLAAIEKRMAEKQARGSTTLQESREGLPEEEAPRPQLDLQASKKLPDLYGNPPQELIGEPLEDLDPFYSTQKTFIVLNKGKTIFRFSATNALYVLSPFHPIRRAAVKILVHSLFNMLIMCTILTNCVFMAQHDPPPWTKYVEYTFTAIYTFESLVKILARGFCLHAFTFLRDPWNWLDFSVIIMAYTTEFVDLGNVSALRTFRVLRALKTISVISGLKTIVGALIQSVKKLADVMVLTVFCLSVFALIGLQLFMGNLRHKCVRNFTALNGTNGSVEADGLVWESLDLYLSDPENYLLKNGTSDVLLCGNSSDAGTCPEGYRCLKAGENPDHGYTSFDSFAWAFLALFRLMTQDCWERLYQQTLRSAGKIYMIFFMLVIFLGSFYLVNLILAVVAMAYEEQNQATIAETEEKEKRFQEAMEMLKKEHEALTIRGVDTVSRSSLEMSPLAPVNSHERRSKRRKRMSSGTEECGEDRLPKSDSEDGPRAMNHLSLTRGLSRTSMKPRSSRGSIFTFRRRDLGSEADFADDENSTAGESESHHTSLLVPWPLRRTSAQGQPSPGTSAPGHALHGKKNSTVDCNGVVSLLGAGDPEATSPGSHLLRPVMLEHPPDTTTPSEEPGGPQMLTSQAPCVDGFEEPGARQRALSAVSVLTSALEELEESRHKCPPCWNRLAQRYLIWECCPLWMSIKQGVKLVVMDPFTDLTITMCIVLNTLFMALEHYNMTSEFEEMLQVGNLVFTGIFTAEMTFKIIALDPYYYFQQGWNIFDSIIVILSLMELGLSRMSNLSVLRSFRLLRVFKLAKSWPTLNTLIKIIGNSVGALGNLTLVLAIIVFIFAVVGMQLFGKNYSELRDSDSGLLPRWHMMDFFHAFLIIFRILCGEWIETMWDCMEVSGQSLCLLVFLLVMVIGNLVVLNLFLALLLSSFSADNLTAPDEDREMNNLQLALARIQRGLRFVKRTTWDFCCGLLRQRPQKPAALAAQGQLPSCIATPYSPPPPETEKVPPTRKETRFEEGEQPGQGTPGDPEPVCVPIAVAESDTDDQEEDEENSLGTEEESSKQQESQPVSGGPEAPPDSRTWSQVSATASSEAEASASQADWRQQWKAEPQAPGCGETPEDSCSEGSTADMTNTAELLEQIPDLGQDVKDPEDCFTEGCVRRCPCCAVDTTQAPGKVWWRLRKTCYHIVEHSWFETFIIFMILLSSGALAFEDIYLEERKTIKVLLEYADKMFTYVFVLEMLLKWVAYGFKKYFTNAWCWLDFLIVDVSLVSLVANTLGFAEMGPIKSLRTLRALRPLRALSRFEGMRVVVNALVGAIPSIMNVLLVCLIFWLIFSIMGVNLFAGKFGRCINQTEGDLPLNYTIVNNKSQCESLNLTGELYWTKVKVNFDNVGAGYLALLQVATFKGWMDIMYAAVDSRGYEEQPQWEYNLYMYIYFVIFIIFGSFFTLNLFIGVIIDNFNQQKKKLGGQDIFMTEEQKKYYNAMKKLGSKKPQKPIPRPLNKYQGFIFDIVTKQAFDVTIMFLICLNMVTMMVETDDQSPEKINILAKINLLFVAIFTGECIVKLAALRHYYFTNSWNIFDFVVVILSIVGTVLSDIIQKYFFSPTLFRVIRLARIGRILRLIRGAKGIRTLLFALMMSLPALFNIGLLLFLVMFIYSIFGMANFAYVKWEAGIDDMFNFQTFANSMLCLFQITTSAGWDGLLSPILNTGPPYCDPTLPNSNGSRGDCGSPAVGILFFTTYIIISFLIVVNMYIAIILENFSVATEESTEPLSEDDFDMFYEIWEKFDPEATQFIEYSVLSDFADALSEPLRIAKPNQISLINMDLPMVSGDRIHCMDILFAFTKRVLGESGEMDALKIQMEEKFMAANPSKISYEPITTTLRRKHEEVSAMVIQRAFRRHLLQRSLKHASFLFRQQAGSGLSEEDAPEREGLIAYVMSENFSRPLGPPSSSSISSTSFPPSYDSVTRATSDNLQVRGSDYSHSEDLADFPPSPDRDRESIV
T3 sequence (P22460 whole entry): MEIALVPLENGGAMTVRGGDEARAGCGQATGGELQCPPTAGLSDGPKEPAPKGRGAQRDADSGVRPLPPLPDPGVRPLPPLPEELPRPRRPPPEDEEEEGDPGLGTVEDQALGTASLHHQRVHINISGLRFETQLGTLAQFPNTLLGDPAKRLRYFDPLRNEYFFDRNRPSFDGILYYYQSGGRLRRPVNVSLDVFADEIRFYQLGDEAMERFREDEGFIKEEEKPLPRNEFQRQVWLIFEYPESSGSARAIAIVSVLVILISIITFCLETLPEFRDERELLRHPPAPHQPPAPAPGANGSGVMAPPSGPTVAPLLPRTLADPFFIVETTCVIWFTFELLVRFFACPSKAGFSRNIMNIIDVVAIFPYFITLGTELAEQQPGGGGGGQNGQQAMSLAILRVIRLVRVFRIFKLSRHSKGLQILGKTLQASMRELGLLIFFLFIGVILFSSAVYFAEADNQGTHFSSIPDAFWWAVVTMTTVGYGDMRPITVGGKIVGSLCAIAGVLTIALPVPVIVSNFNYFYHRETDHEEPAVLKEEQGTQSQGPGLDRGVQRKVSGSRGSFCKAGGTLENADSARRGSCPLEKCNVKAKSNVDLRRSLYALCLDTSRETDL
T2 sequence (Q12809 whole entry): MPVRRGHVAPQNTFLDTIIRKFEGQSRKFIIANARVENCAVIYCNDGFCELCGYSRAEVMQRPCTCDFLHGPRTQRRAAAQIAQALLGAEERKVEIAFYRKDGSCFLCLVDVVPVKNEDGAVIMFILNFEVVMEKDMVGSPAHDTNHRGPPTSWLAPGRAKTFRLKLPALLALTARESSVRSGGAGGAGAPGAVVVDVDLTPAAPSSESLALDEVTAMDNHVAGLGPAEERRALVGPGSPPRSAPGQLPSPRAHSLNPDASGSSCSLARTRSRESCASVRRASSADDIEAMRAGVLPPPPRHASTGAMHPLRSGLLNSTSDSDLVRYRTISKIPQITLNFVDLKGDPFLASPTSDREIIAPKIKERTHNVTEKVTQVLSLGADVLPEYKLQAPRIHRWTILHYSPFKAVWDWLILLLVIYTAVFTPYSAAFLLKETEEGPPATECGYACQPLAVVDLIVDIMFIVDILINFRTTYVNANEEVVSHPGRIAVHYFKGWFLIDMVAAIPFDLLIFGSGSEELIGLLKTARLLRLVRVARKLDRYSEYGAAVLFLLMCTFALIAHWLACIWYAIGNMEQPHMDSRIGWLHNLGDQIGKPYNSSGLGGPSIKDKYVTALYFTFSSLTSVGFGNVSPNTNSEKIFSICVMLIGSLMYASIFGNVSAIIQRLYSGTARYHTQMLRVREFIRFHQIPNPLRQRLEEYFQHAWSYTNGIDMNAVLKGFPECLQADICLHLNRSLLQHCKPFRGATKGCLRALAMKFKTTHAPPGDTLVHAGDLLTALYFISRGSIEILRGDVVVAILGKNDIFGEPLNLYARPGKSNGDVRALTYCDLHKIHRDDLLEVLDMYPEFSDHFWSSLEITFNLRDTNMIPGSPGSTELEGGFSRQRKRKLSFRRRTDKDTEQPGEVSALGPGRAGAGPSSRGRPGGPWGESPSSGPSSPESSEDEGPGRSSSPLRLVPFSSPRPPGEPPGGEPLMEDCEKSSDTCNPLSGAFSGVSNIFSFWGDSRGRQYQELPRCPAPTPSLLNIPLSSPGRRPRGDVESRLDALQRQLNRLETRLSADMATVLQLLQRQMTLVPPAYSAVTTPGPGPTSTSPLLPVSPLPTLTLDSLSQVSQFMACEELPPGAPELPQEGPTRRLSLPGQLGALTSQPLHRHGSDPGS

| Compound | IC50 [1] | IC50 [4] | IC50 [5] | D25 QT (dose required to produce a 25% increase in Q-T interval) ([2]; indicates cardiac potassium channel blockade) | D25 PR (dose required to produce a 25% increase in P-R interval) ([2]; indicates cardiac sodium channel blockade) | IC50 [3] |
| --- | --- | --- | --- | --- | --- | --- |
| CCc1cn2cccc(OCCCc3ccc(Cl)cc3Cl)c2n1 [Compound 4, 8-[3-(2,4-DICHLOROPHENYL)PROPOXY]-2-ETHYLIMIDAZO[1,2-α]PYRIDINE MONOHYDROCHLORIDE] | 0.8 µM | 0.1 µM | 1 µM |  |  | 0.02 µM |
| Clc1ccc(CCCOc2cccn3cc(-c4ccccc4)nc23)c(Cl)c1 [Compound 5, 8-[3-(2,4-DICHLOROPHENYL)PROPOXY]-2-PHENYLIMIDAZO[1,2-α]PYRIDINE MONOHYDROCHLORIDE] | 71 µM | 170 µM | 239 µM |  |  | 0.9 µM |
| Cc1cn2cccc(OCCCC3CCCCC3)c2n1 [Compound 9, 8-[(3-CYCLOHEXYL)PROPOXY]-2-METHYLIMIDAZO[1,2-α]PYRIDINE MONOHYDROCHLORIDE] | 3 µM | 1 µM | 14 µM |  |  | 0.05 µM |
| Cc1cn2cccc(OCCCCCc3ccccc3)c2n1 [Compound 10, 2-METHYL-8-[5-PHENYL-1-PENTOXY]IMIDAZO[1,2-α]PYRIDINE MONOHYDROCHLORIDE] | 1 µM | 0.8 µM | 12 µM |  |  | 0.1 µM |
| Cc1cn2cccc(OCCC(c3ccccc3)c3ccccc3)c2n1 [Compound 12, 8-[3,3-DIPHENYL-1-PROPOXY]-2-METHYLIMIDAZO[1,2-α]PYRIDINE MONOHYDROCHLORIDE] | 1 µM | 0.6 µM | 3 µM |  |  | 0.004 µM |

More lines, main results first:

| IC50 [1] | IC50 [4] | IC50 [5] | Compound | D25 QT (dose required to produce a 25% increase in Q-T interval) ([2]; indicates cardiac potassium channel blockade) | D25 PR (dose required to produce a 25% increase in P-R interval) ([2]; indicates cardiac sodium channel blockade) | IC50 [3] |
| --- | --- | --- | --- | --- | --- | --- |
| 7 µM | 4 µM | 34 µM | Cc1cn2cccc(OCCCc3ccccc3)c2n1 [Compound 2, 2-METHYL-8-[3-PHENYLPROPOXY]IMIDAZO[1,2-α]PYRIDINE MONOHYDROCHLORIDE] | 16 µmol/kg | 24 µmol/kg | 0.06 µM |
| 0.9 µM | 0.8 µM | 0.3 µM | Cc1cn2cccc(OCCCc3c(Cl)cccc3Cl)c2n1 [Compound 6, 8-[3-(2,6-DICHLOROPHENYL)PROPOXY]-2-Methylimidazo[1,2-α]PYRIDINE MONOHYDROCHLORIDE] |  |  | 0.3 µM |
| 10 µM | 5 µM | 15 µM | Cc1cn2cccc(OCc3ccccc3C(F)(F)F)c2n1 [Compound 7, 2-METHYL-8-[2-(TRIFLUOROMETHYL)BENZYLOXY]IMIDAZO[1,2-α]PYRIDINE MONOHYDROCHLORIDE] |  |  | 0.8 µM |
| 11 µM | 0.8 µM | 1210 µM | Cc1cn2cccc(OCc3ccc(Cl)cc3Cl)c2n1 [Compound 8, 8-[2,4-DICHLOROBENZYLOXY]-2-METHYLIMIDAZO[1,2-α]PYRIDINE MONOHYDROCHLORIDE] |  |  | 0.4 µM |
| 14 µM | 11 µM | 152 µM | Cc1cn2cccc(OCCCOCc3ccccc3)c2n1 [Compound 11, 8-[3-BENZYLOXY-1-PROPOXY]-2-METHYLIMIDAZO[1,2-α]PYRIDINE MONOHYDROCHLORIDE] |  |  | 0.08 µM |
| 3 µM | 0.7 µM | 8 µM | Cc1cn2cccc(OCC3(c4ccccc4)CC3)c2n1 [Compound 13, 2-METHYL-8-[(1-PHENYL-CYCLOPROPYL)METHOXY]IMIDAZO[1,2-α]PYRIDINE MONOHYDROCHLORIDE] |  |  | 0.4 µM |
| 0.6 µM | 0.1 µM | 8 µM | FC(F)(F)c1cn2cccc(OCCCc3ccc(Cl)cc3Cl)c2n1 [Compound 15, 8-[3-(2,4-DICHLOROPHENYL)PROPOXY]-2-(TRIFLUOROMETHYL)IMIDAZO[1,2-α]PYRIDINE MONOHYDROCHLORIDE] |  |  | 1 µM |
